# Reference: ChEMBL document CHEMBL3580534, “Antibacterial Biphenanthrenes from the Fibrous Roots of Bletilla striata” (2015)
# Columns and labels:
# Assay type in all cases: functional
# [1] = system: Staphylococcus epidermidis; experiment: Antimicrobial activity against Staphylococcus epidermidis CMCC 26069 assessed as complete prevention of visible growth after incubation at 37 degC for 18 to 20 hrs
# Staphylococcus aureus [2] = experiment: Antimicrobial activity against ampicillin-resistant Staphylococcus aureus ATCC 29213 assessed as complete prevention of visible growth after incubation at 37 degC for 18 to 20 hrs
# Staphylococcus aureus [3] = experiment: Antimicrobial activity against methicillin-resistant Staphylococcus aureus ATCC 43300 assessed as complete prevention of visible growth after incubation at 37 degC for 18 to 20 hrs
# Enterococcus faecalis = experiment: Antimicrobial activity against Enterococcus faecalis ATCC 29212 assessed as complete prevention of visible growth after incubation at 37 degC for 18 to 20 hrs
# Escherichia coli = experiment: Antimicrobial activity against Escherichia coli ATCC 35218 assessed as complete prevention of visible growth after incubation at 37 degC for 18 to 20 hrs
# Staphylococcus aureus [4] = experiment: Antimicrobial activity against Staphylococcus aureus ATCC 25923 assessed as complete prevention of visible growth after incubation at 37 degC for 18 to 20 hrs
# Bacillus subtilis = experiment: Antimicrobial activity against Bacillus subtilis CGMCC 1.1470 assessed as complete prevention of visible growth after incubation at 37 degC for 18 to 20 hrs
# Proteus vulgaris = experiment: Antimicrobial activity against Proteus vulgaris CMCC 49027 assessed as complete prevention of visible growth after incubation at 37 degC for 18 to 20 hrs
SMILES,MIC [1] [µg/mL],MIC (Staphylococcus aureus [2]) [µg/mL],MIC (Staphylococcus aureus [3]) [µg/mL],MIC (Enterococcus faecalis) [µg/mL],MIC (Escherichia coli) [µg/mL],MIC (Staphylococcus aureus [4]) [µg/mL],MIC (Bacillus subtilis) [µg/mL],MIC (Proteus vulgaris) [µg/mL]
COc1ccc2c(ccc3c(-c4cc5c(cc4OC)-c4c(cc(O)cc4OC)CC5)c(O)cc(OC)c32)c1,> 128,> 128,> 128,> 128,> 128,> 128,> 128,> 128
COc1cc(O)c(-c2c(O)cc(OC)c3c2ccc2cc(O)ccc23)c2ccc3cc(O)ccc3c12 [CIRRHOPETALANTHIN],16,16,16,16,> 128,32,8,> 128
COc1cc(O)c2c(c1)CCc1cc(O)c(-c3c(O)cc(OC)c4c3ccc3cc(OC)ccc34)cc1-2,8,8,8,64,> 128,8,16,> 128
COc1ccc2c(ccc3c(-c4c(O)cc(OC)c5c4CCc4cc(O)ccc4-5)c(O)cc(OC)c32)c1,4,2,4,4,> 128,4,4,> 128
CC1(C)S[C@@H]2[C@H](NC(=O)[C@H](N)c3ccccc3)C(=O)N2[C@H]1C(=O)O [AMPICILLIN],8,8,> 8,4,> 8,0.125,> 8,> 8
COc1c(O)ccc2c1ccc1c(-c3c(O)cc(OC)c4c3ccc3c(OC)c(O)ccc34)c(O)cc(OC)c12,8,8,16,64,> 128,16,8,> 128
